The results in this text go back to paper PMC11818921, “Biological Activities of Constituents from Rosa roxburghii and Their Mechanisms Based on Network Pharmacology and Biological Verification” (International Journal of Molecular Sciences, 2025).

“Also recorded” adds a separate entry of the source.

Data set [1] relates to NO release in LPS-induced RAW264.7 macrophages. In words: Inhibition of NO production induced by LPS in RAW264.7 cells. The format is cell-based. As to conditions: LPS-induced RAW264.7 cells; for IC50: RAW264.7, 24 h, LPS 2 μg/mL, 24 h. How it is done: (§1) RAW264.7 cells were added to a 96-well plate (100 μL/well) at 1.5 × 10^5 cells/mL and incubated for 24 h (37 °C). The control group, model group, and experimental group were set up, with 4 replicates in each group. After incubation, the supernatant was discarded. The cells in the experimental group were treated with different concentrations of compounds, and each group was incubated with lipopolysaccharides (2 μg/mL) for 24 h (37 °C). According to the steps and requirements of the kit instructions, NO, TNF-α, and IL-6 content was detected.

For a further data set, the target named is α-glucosidase (Saccharomyces cerevisiae, UniProt P53341). Briefly: α-Glucosidase inhibition assay (pNPG). The following applies: at a concentration of 200 μM; for inhibition at 200 µM: read-out: α-glucosidase inhibition rate. It counts as biochemical. As to the method:
For this assay, 20 μL of each sample, 20 μL of α-glucosidase solution (0.6 U/mL), and PBS solution (20 μL) were mixed, added to a 96-well plate, and incubated at 37 °C for 10 min, and then, pNPG solution (20 μL) was added and incubation continued for 30 min. At the end of incubation, the reaction was terminated with the addition of 80 μL of NaCO3 (0.2 M). The release of p-nitrophenol was measured by placing the 96-well plate at 405 nm on an enzyme meter (positive control: acarbose). The test was repeated three times for all samples.Inhibition (%) = (1 − A405 sample/A405 control) × 100%.

A short description of data set [2]: RAW264.7 cell viability experiment (MTT). The following applies: mouse, RAW264.7 cells.
Protocol: RAW264.7 cells were cultured in DMEM containing 1% penicillin/streptomycin and 10% bovine fetal serum in an incubator (5% CO2, 37 °C).
RAW264.7 cells in the logarithmic growth phase were taken and adjusted to 1.5 × 10^5 cells/mL. The cells were inoculated in 96-well plates and divided into a control group, a blank group, and an experimental group with different concentrations. Each group had 4 duplicate wells and was incubated for 24 h (37 °C). Different concentrations of compounds (100 μL) were added to 96-well plates, and 100 μL of culture medium was added to the blank group and the control group, respectively, and incubated for 24 h. MTT (5 mg/mL, 10 μL) was incubated for 4 h (37 °C) per well. The OD value was measured at 450 nm using a microplate reader to calculate the cell viability.
The nature of data set [3]: ABTS free radical-scavenging assay. The following applies: 6 min reaction, 734 nm. How it is done: In order to explore the antioxidant capacity of compounds 1–7, DPPH and ABTS free radical-scavenging methods were used in this experiment (ascorbic acid as a positive control). During the experimental operation, the antioxidant test method proposed by Zhu et al. was used as a reference. Different concentrations of each compound solution were added to 96-well plates, and then 100 μL of DPPH/ABTS solution was added to each well, and the reaction was performed at room temperature for 30 min (DPPH)/6 min (ABTS). After the reaction, the OD values of each well were measured at 517 nm (DPPH)/734 nm (ABTS) using a microplate reader. Finally, according to the measured OD value, the DPPH and ABTS free radical-scavenging rates of each sample were calculated. In order to ensure the accuracy and reliability of the experimental data, all samples were tested three times.Clearance = [1 − (A sample group − A control group)/A blank group] × 100%

The next data set concerns RAW264.7 cells. The following applies: 50 µM.
Another data set relates to IL-6. In words: ELISA of IL-6 expression in LPS-stimulated RAW264.7 cells. The format is cell-based. As to conditions: lowest concentration 12.5 μM. As to the method:
as §1

The subject of another data set is TNF-α. Briefly: ELISA of TNF-α expression in LPS-stimulated RAW264.7 cells. The format is cell-based. The following applies: 50 μM. How it is done:
as §1

[4] abbreviates: Mus musculus, 50 µM, read-out: NO inhibition rate (%).

Sequence of α-glucosidase (P53341 whole entry): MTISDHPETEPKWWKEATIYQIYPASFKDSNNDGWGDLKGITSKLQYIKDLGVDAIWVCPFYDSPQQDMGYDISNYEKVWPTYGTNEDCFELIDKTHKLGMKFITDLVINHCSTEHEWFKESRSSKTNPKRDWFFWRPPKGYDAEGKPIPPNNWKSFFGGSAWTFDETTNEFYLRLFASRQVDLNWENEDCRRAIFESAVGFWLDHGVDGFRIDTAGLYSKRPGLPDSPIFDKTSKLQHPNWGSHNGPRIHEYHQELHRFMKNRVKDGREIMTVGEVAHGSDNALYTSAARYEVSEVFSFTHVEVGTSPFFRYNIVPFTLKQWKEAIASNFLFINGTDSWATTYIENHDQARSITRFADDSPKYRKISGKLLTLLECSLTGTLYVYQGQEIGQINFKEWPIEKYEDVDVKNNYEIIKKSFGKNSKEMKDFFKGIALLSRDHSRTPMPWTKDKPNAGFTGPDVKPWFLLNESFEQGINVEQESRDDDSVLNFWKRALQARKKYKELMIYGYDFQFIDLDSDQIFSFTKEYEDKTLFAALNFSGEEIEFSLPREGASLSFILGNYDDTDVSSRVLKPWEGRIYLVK

Turning to `CC1=C(CC[C@H](C)O[C@H]2O[C@@H](CO)[C@H](O)[C@@H](O)[C@@H]2O)C(C)(C)C=CC1=O` [Compound 4, linarionoside A], the inhibition at 50 µM in data set [1] (setting [4]) was found to be 6.6%. Also, the inhibition at 200 µM on α-glucosidase was found to be 46.7%. The same compound gave a viability at 24 h, 50 µM in data set [2] of 98.8%.

As for `O=C1C[C@H](c2ccc(O)c(O)c2)Oc2cc(O)cc(O)c21` [Compound 2, (-)-eriodictyol], the inhibition at 50 µM in data set [1] (setting [4]) worked out at 31.3%. In addition, the inhibition at 200 µM on α-glucosidase worked out at 50.1%. In data set [3], the midpoint of inhibition, the IC50, lay at 142.6 ± 0.8 µM. The viability at 24 h, 50 µM in data set [2] was found to be 100%.

For `S=C(S)N1CCCC1` [PDTC, Pyrrolidine dithiocarbamate, reference compound], in data set [1] (Mus musculus), the IC50 stood at 3.13 ± 0.3 µM. For the same compound, the inhibition at 5 µM in data set [1] (Mus musculus, 5 µM, positive control, read-out: NO inhibition rate (%)) turned out to be 69.1%. The compound also showed a viability at 24 h, 5 µM in data set [2] of 98.5%.

Turning to 4-(1-Methoxyethenyl)phenol [Compound 7], the α-glucosidase inhibition rate on α-glucosidase was 41.1%.

With “(1R)-4-[(3R)-3-hydroxybutyl]-3,5,5-trimethylcyclohex-3-en-1-ol [Compound 6]”, the “NO inhibition rate (%)” value in data set [1] (50 µM) amounted to 0.8%. In addition, the midpoint of inhibition in data set [3], the IC50, lay at 128.3 ± 1.2 µM. Moreover, in the data set with RAW264.7 cells, the “Cell viability (%)” value is on record as 98.1%.

`COC(=O)C1OC(OCC(O)COC(=O)c2cc(OC)c(O)c(OC)c2)C(O)C(O)C1O` (stereo not shown) [Compound 1, Roxbubenzoate A]: the inhibition at 50 µM in data set [1] (setting [4]) came to 0%. The midpoint of inhibition in data set [3], the IC50, lay at 107 ± 1.1 µM. In addition, in data set [2], the viability at 24 h, 50 µM stood at 100%.

For `O=C1c2c(O)cc(O)cc2O[C@H](c2ccc(O)cc2)[C@H]1O` [Compound 3, aromadendrin], in data set [1] (Mus musculus), inhibition was half-maximal at 7.83 ± 2 µM (IC50). In addition, the inhibition at 50 µM in data set [1] (setting [4]) was 92.5%. In the data set with IL-6, the “effect on IL-6 expression (ELISA)” value was “strong inhibitory effect; also recorded: dose-dependently suppressed”. The “effect on TNF-α expression (ELISA)” value in the data set with TNF-α is “significant inhibitory activity”. In data set [2], this compound yielded a viability at 24 h, 50 µM of 100%.
